Measured values from PubChem BioAssay (NCI).
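Growth conditions: 96-well plates. Treatment: test compound, 48 hours, 5 concentrations. Analysis: linear interpolation between bracketing concentrations; unreached endpoints set to highest concentration. GI50 = concentration required for 50% inhibition of growth. At the TGI there is no net growth.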 Where a SMILES comes first, the peptide text is derived from it. The star is where a group is joined. Trt = c1ccc(C(c2ccccc2)(c2ccccc2)*)cc1; Cbz = O=C(OCc1ccccc1)*

Legend:
Experiment in all cases: DTP human tumour cell line panel, 48 h
HS 578T breast = test system: HS 578T breast
IGROV1 ovarian = test system: IGROV1 ovarian
OVCAR-5 ovarian = test system: OVCAR-5 ovarian
SK-MEL-5 melanoma = test system: SK-MEL-5 melanoma
MDA-MB-231 breast = test system: MDA-MB-231 breast

SMILES | TGI (HS 578T breast) [µM] | TGI (IGROV1 ovarian) [µM] | TGI (OVCAR-5 ovarian) [µM] | TGI (SK-MEL-5 melanoma) [µM] | TGI (MDA-MB-231 breast) [µM] | GI50 (HS 578T breast) [µM] | GI50 (IGROV1 ovarian) [µM] | GI50 (OVCAR-5 ovarian) [µM] | GI50 (SK-MEL-5 melanoma) [µM] | GI50 (MDA-MB-231 breast) [µM]
COc1ccc(-c2cc(=O)c3c(O)c(OC)c(OC)c(OC)c3o2)cc1OC | 81.8 | > 100 | > 100 | > 100 | > 100 | – | – | – | – | –
O=C1NC(=NCc2ccccc2Cl)S/C1=C\c1ccc2ncccc2c1 | > 19.4 | > 25 | > 25 | > 25 | > 25 | > 9.99 | 9.01 | > 25 | 22.4 | > 25
C[C@@]1([C@H](OC(=O)c2ccccc2)C(N)=O)CO1 | 92.7 | > 100 | 85.9 | 31.3 | 41.8 | 34.4 | 19.6 | 34.1 | 15.1 | 14.9
NS(=O)(=O)c1ccc(Nc2cc(-c3ccc(O)c(F)c3)[nH]n2)cc1 | > 25 | > 25 | > 25 | > 25 | > 25 | 7.28 | > 25 | > 25 | 10.7 | > 25
COc1cc2c(c(OC)c1OC)-c1ccc(NN(C(=O)c3ccccc3)C(=O)c3ccccc3)c(=O)cc1[C@@H](NC(C)=O)CC2 (tested in a mixture with another compound) | 6.3 | 63 | > 100 | 11 | > 100 | 1.9 | 4.6 | 3.95 | 2.49 | 3.39
COc1cc2cc(Oc3ccc(NC(=O)Nc4cc(C(F)(F)F)cc(C(F)(F)F)c4)cc3)c(C)nc2cc1OCCN1CCOCC1 | 7 | 6.9 | 7.97 | 1.66 | 6.45 | 1.56 | 1.54 | 2.18 | 0.885 | 1.7
COc1cc([N+](=O)[O-])c(OC)cc1-c1nc2sc(C)c(C)n2c1/C(N)=N/C(=N)N | – | > 100 | > 100 | > 100 | – | – | > 100 | > 100 | 8.14 | –
COc1cc(/C=C/C(=O)c2cccc(-n3cc(-c4cc(OC)c(OC)c(OC)c4)[nH]c3=O)c2)cc(OC)c1OC | > 100 | 3.79 | 13.4 | 9.57 | 26.3 | > 100 | 1.6 | 4.38 | 2.76 | 4.19
Clc1nccc2c(-c3csc(-c4c[nH]c5ccc(Br)cc45)n3)c[nH]c12 | 17.8 | 15.4 | 9.88 | 6.42 | 4.62 | 3.7 | 2.51 | 3.14 | 2.61 | 1.68
COC(=O)C(CO)NC(=O)C(CSC(c1ccccc1)(c1ccccc1)c1ccccc1)NC(=O)OCc1ccccc1 (stereo unspecified) (Cbz-Cys(Trt)-Ser-OMe; configuration not given here) | 47.9 | 37.3 | 35.3 | 28.4 | 27.8 | – | – | – | – | –
COc1ccc2nc3cc(Cl)ccc3c(NCCCNCCO)c2c1 | 5.62 | 3.18 | 3.28 | 2.93 | 2.71 | 1.48 | 0.577 | 0.531 | 1.55 | 0.47
Cc1ccc(CNc2ccc(Br)cc2)cc1 | > 100 | – | > 100 | 30.8 | > 100 | – | – | – | – | –
O=C(O)C1=C/C(=C(/c2ccccc2)c2cc(C(=O)O)c(O)c3ccccc23)c2ccccc2C1=O | > 100 | > 100 | > 100 | > 100 | > 100 | – | – | – | – | –
COc1ccc(-c2cc(-c3ccc(Nc4nc(Nc5ccccc5)nc(Nc5ccc(Cl)cc5)n4)cc3)nc(N)n2)cc1 | 32.2 | 28.2 | 26.3 | 20.9 | > 50 | 6.65 | 6.27 | 9.72 | 6.55 | 8.28
CCCCN(CCCC)C(=O)[C@H](CC)[C@@H]1CC[C@@H](C)[C@@H]([C@H](C)[C@@H](O)[C@@H](C)C(=O)[C@H](CC)C2O[C@]3(C=C[C@@H](O)[C@]4(CC[C@@](C)([C@H]5CC[C@](O)(CC)[C@H](C)O5)O4)O3)[C@H](C)C[C@@H]2C)O1 (stereo partly specified) | 7.83 | 15.2 | 4.78 | 3.15 | 3.19 | 2.32 | 3 | 1.9 | 1.73 | 1.57
COc1ccc2c(c1)OC(N)=C(C#N)C2c1cc(OC)c(OC)c(OC)c1 (stereo unspecified) | > 100 | > 51 | > 100 | – | – | 0.0408 | 0.0463 | 0.059 | 0.0317 | –
CC(C)(C)c1cc(C(=O)Nc2ccccc2C(=O)NCCN)cc(C(C)(C)C)c1 | 4.63 | – | 3.81 | 3.27 | – | 2.07 | – | 1.78 | 1.82 | –
COc1cccc(/C=C/C(=O)c2ccc3cc(OC)ccc3c2)c1 | 48.3 | 21.7 | 25.5 | 18.2 | 22.9 | 14.3 | 4.05 | 11.1 | 9.21 | 8.95
C/C(=N\O)c1ccc2ccc3ccccc3c2c1 | 80.6 | > 100 | > 100 | 37 | > 100 | – | – | – | – | –
CN1CCN(CC(=O)N(C)c2ccc(N=C(c3ccccc3)c3c(O)[nH]c4ccc(C#N)cc34)cc2)CC1 | 2.09 | 15.5 | 19.2 | 3.16 | 6.32 | 0.0938 | 3.33 | 7.11 | 1.59 | 2.66
CCOC(=O)CSc1cc(Cl)c(C)cc1S(=O)(=O)/N=C(/N=C/c1ccc([N+](=O)[O-])s1)NNC | 76.7 | > 100 | 38.4 | 29 | 29.7 | 28 | 42.7 | 6.02 | 15.2 | 11.7
CSc1ccc(C2=C(c3ccccc3)C(=O)OC2)cc1 | 1.22 | > 63.9 | > 100 | 3.56 | 20.9 | 0.219 | 2.18 | 5.18 | 0.732 | 0.425

SMILES | TGI (HS 578T breast) [µM] | TGI (IGROV1 ovarian) [µM] | TGI (OVCAR-5 ovarian) [µM] | TGI (SK-MEL-5 melanoma) [µM] | TGI (MDA-MB-231 breast) [µM] | GI50 (HS 578T breast) [µM] | GI50 (IGROV1 ovarian) [µM] | GI50 (OVCAR-5 ovarian) [µM] | GI50 (SK-MEL-5 melanoma) [µM] | GI50 (MDA-MB-231 breast) [µM]
CC(C)=CCc1cc2c(cc1O)C1=C(C(=O)C3=C(C1=O)S(=O)(=O)CCN3)C(C=C(C)C)O2 (stereo unspecified) | 8.15 | 4.76 | 5.93 | 0.66 | 1.61 | 1.31 | 0.959 | 2.73 | 0.284 | 0.374
O=C(CS(=O)(=O)c1nc2ccccc2nc1-c1ccccc1)Nc1ccc(F)cc1 | 94.3 | > 100 | > 100 | 94.6 | > 100 | 29.7 | 74 | > 100 | 23.9 | 34.7
c1ccc(-c2oc(-c3ccccc3)c(CN3CCCCC3)c2CN2CCCCC2)cc1 | 15.8 | 14.4 | 8.85 | 3.08 | 6.06 | 3.14 | 1.73 | 1.82 | 1.59 | 1.77
C=C1C(=O)O[C@H]2[C@H]1CC/C(COC(=O)c1cc(OC)c(OC)c(OC)c1)=C\CC[C@@]1(C)O[C@@H]21 | 32.7 | 2.05 | 5.08 | 3.05 | 4.16 | 3.68 | 0.477 | 1.76 | 1.68 | 1.54
O=C1CC2OCC=C3CN4CCC56c7ccccc7N1C5C2C3CC46O (stereo unspecified) | > 100 | > 100 | > 100 | > 100 | > 100 | – | – | – | – | –
O=C1NC(=S)S/C1=C\c1cn(-c2ccccc2)nc1-c1ccccc1 | 43.6 | 38.9 | 29.6 | 14.2 | 33.3 | 6.03 | 13.9 | 14.3 | 3.19 | 10.1
C#Cc1cccc(Nc2ncnc3cc(NC(=O)CCl)ccc23)c1 | 14.2 | 6.84 | 5.63 | 6.71 | 7.28 | 3.71 | 1.43 | 1.12 | 3.37 | 3.35
Cn1cc(/C=C\[N+](=O)[O-])c2ccccc21 | 50.5 | > 100 | > 100 | 31.6 | 78.8 | 19.8 | 49.2 | > 100 | 14.8 | 23.4
COc1cc(/C=C2\C(=O)N(Cc3ccc(Cl)cc3)c3ccccc32)cc(OC)c1OC | 11.1 | 10.3 | 14.5 | 11.9 | 18.4 | 1.65 | 2.73 | 3.38 | 3.98 | 2.48
O=C(Nc1ccc(Oc2ccc3nc(NC(=O)c4ccco4)[nH]c3c2)cc1)Nc1cc(C(F)(F)F)ccc1F | 3.42 | 10.2 | 8.63 | 4.74 | 5.77 | 0.446 | 1.23 | 1.49 | 1.16 | 1.09
COc1cc(CNCCCCCCN2C(=O)c3cccc4cccc(c34)C2=O)ccc1O | 37.4 | 16.2 | 29 | 5.92 | 19.6 | 10 | 3.72 | 14.1 | 2 | 5.84
CC(=O)Nc1ccc(C(=O)CCl)cc1 | 80.5 | 31 | 26.1 | 31 | 14.8 | 17.7 | 14.8 | 12.2 | 15.9 | 4.02
Cc1ccccc1N=Nc1c(O)ccc2ccccc12 | > 100 | > 100 | > 100 | > 100 | > 100 | – | – | – | – | –
CCOC(=O)c1c(-c2ccccc2)[n+](=O)c2cc(Cl)c(Cl)cc2n1[O-] | 49.9 | > 100 | 47.7 | 28.8 | 5.55 | 20.1 | 1.63 | 22 | 14.8 | 2.09
O=C1Nc2ccc(Cl)cc2/C1=C\c1c(-c2ccc(Cl)cc2)nc2sc(C3CC3)nn12 | 6.85 | 15.8 | 42.6 | 13 | 13 | 2.31 | 4.12 | 11.7 | 3.2 | 2.67
COc1cc(-c2cc(/C=C/C(=O)c3ccc(F)c(F)c3)[nH]n2)cc(OC)c1OC | 36.8 | 87 | 33.8 | 6.41 | 4.58 | 3.58 | 3.62 | 4.49 | 2.27 | 1.64
Cc1cc(=O)oc2ccc(OC/C=C3\CCC(=O)O3)cc12 | 48.9 | 16.4 | 31.2 | 32.5 | 27 | 10.8 | 3.3 | 14.8 | 16.4 | 13.2
CCOCC1(COCC)CCC(c2[nH]ncc2CN(C)CCNC)CC1 | > 100 | > 100 | > 100 | > 100 | > 100 | > 100 | > 100 | > 100 | > 100 | > 100
O=C(Nc1ccc(Oc2ccc(F)cc2)cc1)[C@@H]1C[C@@H](Cc2ccc(F)cc2)CN1C(=O)Cn1ccnn1 | 51.9 | 28.2 | 17.7 | 22.6 | 26.6 | 11.5 | 8 | 4.52 | 9.12 | 8.91
COc1cc2oc(-c3cccc(C(=O)Nc4ccc(Cl)cc4)c3)cc(=O)c2c(OC)c1OC | > 100 | > 100 | > 100 | 2.68 | > 100 | 2.95 | 2.31 | 1.87 | 1.28 | 1.58
CCN1CCN(c2nc(C)cc(N(CCCNc3ccnc4cc(Cl)ccc34)Cc3ccc4c(c3)OCO4)n2)CC1 | – | 5.06 | 7.77 | 3.05 | 2.9 | – | 1.61 | 2.57 | 1.66 | 1.2
